The values that follow are results of earlier work, collected in patent US6475518B1, “Methods and compositions for treatment of disorders associated with chlamydia and similar bacterial infection” (priority 1998, dated 2002).

Data set [1] deals with C. pneumoniae. The note with it: Gupta S, et al., Circulation 1997.
Data set [2] has as its system C. pneumoniae. The note with it: Gurfinkel E, et al., Lancet 1997; limited numbers, no prolonged follow-up yet.

Molecules are shown by their SMILES.

As to `CC[C@H]1OC(=O)[C@H](C)[C@@H](O[C@H]2C[C@@](C)(OC)[C@@H](O)[C@H](C)O2)[C@H](C)[C@@H](O[C@@H]2O[C@H](C)C[C@H](N(C)C)[C@H]2O)[C@](C)(O)C[C@@H](C)CN(C)[C@H](C)[C@@H](O)[C@]1(C)O` [azithromycin], in the data set on C. pneumoniae [1], the “Clinical benefit of monotherapy” value was “the benefit was not sustained after initial therapy”.
Turning to `CC[C@H]1OC(=O)[C@H](C)[C@@H](O[C@H]2C[C@@](C)(OC)[C@@H](O)[C@H](C)O2)[C@H](C)[C@@H](O[C@@H]2O[C@H](C)C[C@H](N(C)C)[C@H]2O)[C@](C)(O)C[C@@H](C)/C(=N\OCOCCOC)[C@H](C)[C@@H](O)[C@]1(C)O` [roxithromycin], the “Clinical benefit of sole therapy” value with C. pneumoniae [2] was “a benefit was described”.
